Laboratory results taken from patent US20250000876A1, “Novel therapeutic agent for inflammatory disease” (Gachon University of Industry-Academic cooperation …, priority 2020, published 2025).

Columns and labels:
M1-activated FLS = experiment: Cytokine expression in FLSs activated with M1 macrophage conditioned medium; assay type: cell-based, human
Method: (§1) To measure cytokine expression, RT-PCR (CFX 384, Bio-Rad, Hercules, CA, USA) was performed according to the manufacturer's protocol. […] Then, total RNA was isolated from cells (5×10^5 cells/well in a total of 6-well plates) using TRIzol (15596018, Thermo Fisher Scientific) and first strand complementary DNA (cDNA) using RT premix (Promega) was synthesized. Reverse transcription conditions were carried out at 45° C. for 60 minutes and at 95° C. for 5 minutes. Briefly, in each final reaction tube, 2 μL of cDNA (1 μg), 1 μL of sense and antisense primer solutions (0.4 μM), 12.5 μL of SYBR Premix Ex Taq (Takara Bio Inc.) and 9.5 μL of dH2O. The cycle threshold (Ct) value was calculated using the CFX96 Real-Time PCR Detection System (Bio-Rad) software, and the comparative Ct method (2ΔΔCt model) was used to calculate the relative fold change of gene expression. It was then normalized to mean GAPDH expression.
Recently, the role of macrophages in inflamed synovial membranes has been of great interest due to the inflammatory effects of these cells during pathogens of RA and OA in joints (A. Kennedy et al., Front. Immunol., 2:52, 2011). The present inventors therefore investigated the stimulation of FLS pro-inflammatory activity by activated M1 macrophage cytokines (from LPS-treated J774 cells to conditioned medium).

[1] = tested on: macrophages treated with TNF-α-activated FLSs medium; experiment: Macrophage repolarization after TNF-α-activated FLSs medium; assay type: cell-based
Method: as §1
Macrophages of the synovium can stimulate pro-inflammatory FLSs activity by infiltrating inflamed tissues and increasing pro-inflammatory cytokine levels (M. Asif Amin et al., Semin. Immunopathol., 39 (4): 385-393, 2017). For this reason, modulating macrophage differentiation (ie, repolarization) is important in alleviating arthritis disease (J. Kim et al., ACS Nano, 13 (3): 3206-3217, 2019).

[2] = Hydrodynamic size distribution, potential and polydispersity index (Zetasizer Nano); assay type: physicochemical
CIA-induced mice = experiment: Collagen-induced arthritis (CIA) model; assay type: in vivo, DBA/1 mice; conditions: for paw edema and paw score: ankle joint, 48 days
Method: DBA/1 mice (male, 4-6 weeks old, body weight 20-25 g) were purchased from Orient Bio (Seoul, Korea) and the mice were subjected to a 12-hour light/dark cycle (lit at 6:30 AM) for 7-14 days. They were placed in a specific pathogen-free environment with temperature and humidity controlled and acclimatized before the experiment. All animal experiments were performed according to the Gachon University Laboratory Animal Care and Use Guide. […] Animals with […] arthritis were randomly assigned to 6 groups (n=6) after the first signs of inflammation were observed on day 27.
The status of RA was assessed visually by grading paw swelling according to the following criteria: 0, no swelling; 1, inflammation and swelling in one toe; 2, more than one toe, but inflammation and swelling throughout the foot; 3, moderate swelling of the entire foot; 4, Severe erythema and swelling of the entire foot and ankle (H. E. Scales, et al., Rheumatology (Oxford) 55 (3): 564-572, 2016). A total score of four paws was recorded for each mouse as the arthritis index. […] Each treatment group was administered twice weekly for 3 weeks, 2 mg/kg or 5 mg/kg condition, and the arthritis index of each group was recorded over time. After 3 weeks of treatment, mice were sacrificed, and limbs were collected and histological analysis was performed.
Histopathology was evaluated to determine the characteristics of RA including macrophage phenotype, synovitis and cartilage destruction. Specifically, on day 48, the mice were sacrificed and the ankle joint was recovered. The […] was fixed in 4% paraformaldehyde at 4° C. for 3 days, transferred to a descaling solution (Sigma), and left on an orbital shaker. Then, the tissue was decalcified at room temperature for 14 days, and the non-calcified ankle joint was embedded in paraffin and then cut into 3 μm using a microtome. For immunofluorescence histochemistry, tissue sections were dewaxed and TNF-α (Abcam, ab1793), IL-1β (Abcam, ab9722), IL-6 (Abcam, ab7737), INF-γ (Novus Biotech, NBP1), CD86 (Invitrogen, 13-0862-82), and Dectin-1 (Abcam, ab140039) were stained with primary antibodies. The secondary antibodies used in the present invention are goat anti-rat Alexa Fluor 488 (Abcam) for INF-γ, goat anti-mouse Alexa Fluor 488 (Abcam) for TNF-α, goat anti-mouse Alexa Fluor 568 for CD86 (Abcam), goat anti-rabbit Alexa Fluor 488 (Abcam) for IL-1β and IL-6 and goat anti-rabbit Alexa Fluor 568 (Abcam) for Dectin-1. The tissue sections were then stained with DAPI mounting solution and observed using a confocal fluorescence microscope (LSM700, Carl Zeiss) and EVOS M7000, Invitrogen. Fluorescence intensity was also quantified using ImageJ, Zen Lite (Zeiss) and Celleste (Invitrogen).

[3] = H2O2 decomposition and O2 production analysis; conditions: after 24 hours, pH 7.4
Method: Then, 50 μl of the solution was added to a solution of 100 μL of Ti (SO4)2 containing 1.33 mL of 24% Ti(SO4)2 and 8.33 mL of H2SO4 in 50 mL of deionized water after 24 hours. After the reaction was completed, the absorbance of the solution was measured at 405 nm to evaluate the H2O2 concentration.
We performed H2O2-scavenging effect of AuNPs and intracellular ROS analysis before pro-inflammatory cytokine secretion assay. Specifically, after treatment with Triamcinolone and AuNPs under physiological conditions (pH 7.4), concentration of H2O2 was analyzed.

electric potential caused by the surface charge ([2]; Example 1, Triam series) | hydrodynamic size ([2]; Example 1, Triam series) | electric potential caused by the surface charge ([2]; Example 9, Dex series) | hydrodynamic size ([2]; Example 9, Dex series) | Structure (SMILES) | level of FLSs pro-inflammatory cytokines (TNF-α, IL-1β and IL-6) (M1-activated FLS; FLSs treated with M1 medium) | anti-inflammatory mRNA (IL-4, IL-10 and Arg-1) synthesis (M1-activated FLS; M1-activated FLS) | M2 response (IL-4, Arg-1 and IL-10 expression) [1] | inflammatory marker levels (TNF-α, IL-1β and IL-6 expression) [1] | level of CD86 (M1 marker) in ankle joint (CIA-induced mice; 2 mg/kg) | level of Dectin-1 (M2 marker) in ankle joint (CIA-induced mice; 2 mg/kg) | paw edema and paw score (CIA-induced mice; 2 mg/kg) | level of CD86 (M1 marker) in ankle joint (CIA-induced mice; 5 mg/kg) | level of Dectin-1 (M2 marker) in ankle joint (CIA-induced mice; 5 mg/kg) | paw edema and paw score (CIA-induced mice; 5 mg/kg) | reduction of H2O2 concentration [3]
approached neutral charges | 75 nm | – | – | C[C@]12C=CC(=O)C=C1CC[C@H]1[C@@H]3C[C@@H](O)[C@](O)(C(=O)CO)[C@@]3(C)C[C@H](O)[C@@]12F [Triam, Triamcinolone] | effectively reduced | did not induce anti-inflammatory cytokine release | did not induce noticeable M2 marker expression | decreased significantly | reduced the level of the M1 marker | did not sufficiently restore the level of the M2 marker | did not show sufficient effect | reduced the level of the M1 marker | did not sufficiently restore the level of the M2 marker | did not show sufficient effect | about 48%
– | – | neutrally charged | 125 nm | C[C@@H]1C[C@H]2[C@@H]3CCC4=CC(=O)C=C[C@]4(C)[C@@]3(F)[C@@H](O)C[C@]2(C)[C@@]1(O)C(=O)CO [free Dex, dexamethasone] | – | – | – | – | – | – | – | – | – | – | –
